The values that follow come from PubChem BioAssay (NCI).

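Interpolation was linear, between the two tested concentrations surrounding the appropriate level; five concentrations were tested over 48 hours in 96-well plates. The concentration for full growth arrest is given as TGI.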

Test systems include MALME-3M melanoma; T-47D breast; SK-MEL-5 melanoma; SNB-75 CNS; MCF7 breast; K-562 leukemia; BT-549 breast; SF-295 CNS; NCI-H23 lung; NCI-H460 lung.
Common to all, as to experiment: NCI anticancer screen, dose series, 48 h

`CN1CCN([C@H]2C[C@H]3[C@@H]4CC=C5C[C@@H](O)CC[C@]5(C)[C@H]4CC[C@]3(C)[C@H]2O)CC1`: the TGI in the experiment on MALME-3M melanoma is > 58100 nM; with T-47D breast, > 77800 nM; in the experiment with SK-MEL-5 melanoma, > 54700 nM; with SNB-75 CNS, 97.4 µM; with MCF7 breast, > 63200 nM; in the experiment with K-562 leukemia it was 39.7 µM. Also, the TGI in the experiment on BT-549 breast is > 100000 nM; with SF-295 CNS, > 100 µM; in the experiment with NCI-H23 lung it was > 100000 nM; in the experiment on NCI-H460 lung it was > 59200 nM.
Consider `C=C1C(=O)OC2C3OC(C)(CCC(O)C3COC(C)=O)CC(OC(=O)/C(=C/C)COC(C)=O)C12` (stereo not given), for which the TGI with MALME-3M melanoma was determined as 76.3 nM; in the experiment with T-47D breast it was 424 nM; in the experiment on SK-MEL-5 melanoma, 2650 nM; with SNB-75 CNS, 18.1 µM; with MCF7 breast it was 533 nM; in the experiment on K-562 leukemia, 6.42 µM. Further, the TGI in the experiment with BT-549 breast came out at 722 nM; with SF-295 CNS, 22.3 µM; in the experiment with NCI-H23 lung, 2930 nM; with NCI-H460 lung, 2220 nM.
